In patent publication US20110003883A1, “ALLOSTERIC TRANS-SPLICING GROUP I RIBOZYME WHOSE ACTIVITY OF TARGET-SPECIFIC RNA REPLACEMENT IS CONTROLLED BY THEOPHYLLINE” (Industry-Academic Cooperation Foundation, Dankook University, priority 2008, published 2011):

What was measured:
HT-29 cells = assay: MTT assay in HT-29 cells (hTERT+); type: cell-based, human; conditions: HT-29 cells with Ad-TheoRib-TK
Method: (§1) Cells were seeded in a 96 well plate (TPP) for 1 day, and then infected with Ad-TK (an adenoviral vector expressing a TK gene under the control of a CMV promoter), Ad-Rib-TK, Ad-TheoRib-TK, and Ad-LacZ (an adenoviral vector expressing a LacZ gene under the control of a CMV promoter) adenoviruses, respectively. The used media supplemented with GCV and a chemical (theophylline or caffeine) were exchanged with the same new media from every second to fifth day from the day after the virus infection. The HT-29 strain was seeded at a cell number of 3×10^3/well, the HepG2 strain was seeded at a cell number of 3×10^3/well, the Capan-1 strain was seeded at a cell number of 5×10^3/well, and the IMR90 strain was seeded at a cell number of 5×10^3/well. 5 days after the seeding of the strains, CellTiter 96® AQueous ONE Solution Cell Proliferation Assay (Promega) was added to each cell medium so that it amounted to 20% of the total medium, and the 96 wells were treated with 100 μl of resulting cell medium per well, and measured at a wavelength of 490 nm, using a Microplate reader model 550 (BioRad), to observe cell viability of the cells. […]

HepG2 cells = assay: MTT assay in HepG2 cells (hTERT+); type: cell-based, human; conditions: HepG2 cells with Ad-TheoRib-TK
Method: as §1

Capan-1 cells = assay: MTT assay in Capan-1 cells (hTERT+); type: cell-based, human; conditions: Capan-1 cells with Ad-TheoRib-TK
Method: as §1

theophylline aptamer = conditions: cited from earlier work

Structure (SMILES)	optimum condition for allosterically induced gene expression: concentration (HT-29 cells)	optimum condition for allosterically induced gene expression: concentration (HepG2 cells)	optimum condition for allosterically induced gene expression: concentration (Capan-1 cells)	affinity to the theophylline aptamer, lower than theophylline (theophylline aptamer)
Nc1nc(O)c2ncn(COC(CO)CO)c2n1 [GCV, ganciclovir]	10 µM	10 µM	50 µM	
Cn1c(=O)c2c(ncn2C)n(C)c1=O [caffeine]				1000 times
Cn1c(=O)c2[nH]cnc2n(C)c1=O [theophylline]	100 µM	10 µM	500 µM	
